Measurements as given in patent US10570097B2, “Antimicrobial imidazolium compounds” (AGENCY FOR SCIENCE, TECHNOLOGY AND RESEARCH, priority 2014, dated 2020).

What was measured:
[1] = tested on: rat red blood cells (RBCs); test: Hemolysis; type: cell-based; conditions: lowest concentration that induces 10% or more hemolysis; rat RBCs, 1 h, 37° C.; maximum tested 100,000 ppm
Experimental: Before these materials can be used in systemic applications, selectivity of these materials for microbial cells over mammalian cells should also be considered. Such selectivity is often determined by observation of hemolysis. Hemolysis was performed in the following manner, fresh rat red blood cells (RBCs) were diluted with PBS buffer to give an RBC stock suspension (4 vol % blood cells). A 100 μL aliquot of RBC stock was added to a 96-well plate containing […] oligomer compound stock solutions of various concentrations (serial 2-fold dilution in PBS). After 1 h incubation at 37° C., The contents of each well was pipetted into a microcentrifuge tube and then centrifuged at 4000 rpm for 5 min. Hemolytic activity was determined as a function of hemoglobin release by measuring OD576 of […] of the supernatant. A control solution that contained only PBS was used as a reference for 0% hemolysis. 100% hemolysis was measured by adding 0.5% Triton-X to the RBCs. [formula] The selectivity of the materials was also further assessed, by calculating the selectivity indices (SI), a measure and a comparison of safety and efficacies of each oligomer compound. […] Herein, the more stringent control of HC10 value was chosen over the HC50 value often reported in literature.

P. aeruginosa = test: Minimum inhibitory concentration by microdilution assay; type: cell-based, Pseudomonas aeruginosa; conditions: 37° C., 24 h
Experimental: (§1) Staphylococcus aureus (ATCC 6538, gram-positive), Escherichia coli (ATCC 25922, gram-negative), Pseudomonas aeruginosa (gram-negative), and Candida albicans (ATCC 10231, yeast) were used as representative microorganisms to challenge the antimicrobial functions of the imidazolium salts. All bacteria and yeast were stored frozen at −80° C., and were grown overnight at 37° C. in Tryptic Soy broth (TSB) prior to experiments. Yeast was grown overnight at 22° C. in Yeast Mold (YM) broth. Subsamples of these cultures were grown for 3 h further and diluted to give an optical density value of 0.07 at 600 nm, corresponding to 3×10^8 CFU mL^−1 (MacFarland's Standard).
(§2) The oligomer compounds were dissolved in PBS at a concentration of 1 mg mL^1 and the minimal inhibitory concentrations (MICs) were determined by microdilution assay. Typically, a 100 μL microbial solutions (containing 3×10^8 cells mL^−1) were added to 100 μL of PBS containing the test imidazolium salts (normally ranging from […] in serial two-fold dilutions) in each well of the 96-well microtiter plate. The plates were incubated at 37° C. for 24 h with shaking at 300 rpm, with monitoring at the 2, 4, 6, 8, and 24 h time points. […] Broth and PBS solution containing microbial cells alone were used as negative controls, and experiments were run in triplicates.

E. coli [2] = test: Time kill kinetics; type: cell-based, Escherichia coli; conditions: for % kill / Log reduction: E. coli, 4MIC
Experimental: Time kill studies of the soligome compounds against E. coli were also studied. The experimental setup for time kill kinetics was similar to the set up for MBC determination. The microbes were treated with oligomer compounds at 4MIC concentration, and samples were taken out of each well at 2 minutes. 500 μl of cell suspension was removed, rescued by a series of 10-fold dilutions with growth medium, and kept on ice until plating. For plating, 50 μl to 200 μl of the diluted samples was spread on growth medium agar plates and colonies were counted after overnight incubation at 37° C.

[3] = tested on: 4 microbes (S. aureus, E. coli, P. aeruginosa, C. Albicans); test: MIC over the 4 microbes tested (geometric mean); type: cell-based; conditions: geometric mean of the MICs of the 4 microbes
Experimental: Staphylococcus aureus (ATCC 6538, gram-positive), Escherichia coli (ATCC 25922, gram-negative), Pseudomonas aeruginosa (gram-negative), and Candida albicans (ATCC 10231, yeast) were used as representative microorganisms to challenge the antimicrobial functions of the imidazolium salts. All bacteria and yeast were stored frozen at −80° C., and were grown overnight at 37° C. in Tryptic Soy broth (TSB) prior to experiments. Yeast was grown overnight at 22° C. in Yeast Mold (YM) broth. […] Typically, a 100 μL microbial solutions (containing 3×10^8 cells mL^−1) were added to 100 μL of PBS containing the test imidazolium salts (normally ranging from […] in serial two-fold dilutions) in each well of the 96-well microtiter plate. The plates were incubated at 37° C. for 24 h with shaking at 300 rpm, with monitoring at the 2, 4, 6, 8, and 24 h time points. […] Broth and PBS solution containing microbial cells alone were used as negative controls, and experiments were run in triplicates. The selectivity of the materials was also further assessed, by calculating the selectivity indices (SI), a measure and a comparison of safety and efficacies of each oligomer compound. […] Herein, the more stringent control of HC10 value was chosen over the HC50 value often reported in literature.

S. aureus [4] = test: Minimum biocidal concentration / killing efficiency (24 h); type: cell-based, Staphylococcus aureus
Experimental: (§3) To determine the minimum bacteriocidal concentration, the microbes were inoculated and prepared according to the procedure for MIC determination. […] The bacterial samples were taken out of each well after the aforementioned period, and subjected to a series of 10-fold dilutions. 20 uL of the diluted sample was then streaked across an agar plate, before incubation of the plate at 37° C. for 24 h. Colony forming units (CFU) were counted after overnight incubation, and the results were calculated according to the formula: [formula]

[5] = Critical micellar concentration (pyrene fluorescent probe); type: physicochemical; conditions: for sharp point of inflection indicating the critical micellar concentrations: FIG. 4, deionized water
Experimental: The CMC values of the oligomer compounds were determined in both deionised (DI) water and PBS, using a LS50B luminescence spectrometer (Perkin Elmer, United States) and employing pyrene as a fluorescent probe. A known weight of the oligomer compound was dissolved in either 2 mL of DI water or PBS in a 4 mL glass vial and serial dilutions were effected. 10 μL of pyrene stock solution in acetone (6.16×10^-5 M) was added to each vial containing 1 mL of a known concentration of the oligomer compound, and the acetone was then evaporated at room temperature. The solution was allowed to equilibrate overnight and the final concentration of pyrene in each vial was 6.16×10^-7 M. The excitation spectra of the solutions were scanned from 300 to 360 nm with an emission wavelength of 395 nm, and both the excitation and emission bandwidths were set at 2.5 nm. The intensity ratios ([…]/[…]) were plotted against polymer concentration. The CMC value was given by the intersection of the tangent to the curve at the inflection and the tangent of the points at low polymer concentrations.

S. aureus [6] = test: Minimum inhibitory concentration by microdilution assay; type: cell-based, Staphylococcus aureus (ATCC 6538); conditions: 37° C., 24 h
Experimental: as §1, §2

C. Albicans = test: as above; type: cell-based, Candida albicans (ATCC 10231); conditions: 24 h
Experimental: as §1, §2

E. coli [7] = test: Minimum biocidal concentration / killing efficiency (24 h); type: cell-based, Escherichia coli
Experimental: as §3

[8] = Gelling properties in solvents (tube inversion test); type: physicochemical
Experimental: Gels were prepared by weighing the imidazolium oligomer compounds directly into 4 mL glass vials and subsequently adding a known weight or volume of the solvent. The vials containing both the imidazolium and the solvent were either vortexed or sonicated to ensure that the imidazolium was dissolved and dispersed thoroughly before being placed in a 4° C. fridge overnight. The tube inversion test method was used to examine gel formation in different solvents.

E. coli [9] = test: Minimum inhibitory concentration by microdilution assay; type: cell-based, Escherichia coli (ATCC 25922); conditions: E. coli, 37° C., 24 h
Experimental: as §1, §2

| Structure (SMILES) | HC10 [1] [ppm] | MIC P.A. (P. aeruginosa) [µg/mL] | % kill (E. coli [2]; two minutes) [%] | Log reduction (E. coli [2]; two minutes) | MIC GM [3] [µg/mL] | sharp point of inflection indicating the critical micellar concentrations [5] | MIC S.A. (S. aureus [6]) [µg/mL] | MIC C.A. (C. Albicans) [µg/mL] | State in solvent ([8]; Acetone) | State in solvent ([8]; Acetonitrile) | Concentration to form gel ([8]; EtOH) | State in solvent ([8]; EtOH) | State in solvent ([8]; Ethylene glycol) | State in solvent ([8]; Glycerol) | Concentration to form gel ([8]; nBuOH) | State in solvent ([8]; nBuOH) | Concentration to form gel ([8]; nPrOH) | State in solvent ([8]; nPrOH) | MIC E. coli (E. coli [9]) [µg/mL] | further results |
| --- | --- | --- | --- | --- | --- | --- | --- | --- | --- | --- | --- | --- | --- | --- | --- | --- | --- | --- | --- | --- |
| CCCCCC[n+]1ccn(Cc2ccc(C[n+]3ccn(Cc4ccc(C[n+]5ccn(Cc6ccccc6Cn6cc[n+](Cc7ccc(Cn8cc[n+](Cc9ccc(Cn%10cc[n+](CCCCCC)c%10)cc9)c8)cc7)c6)c5)cc4)c3)cc2)c1.[Br-].[Br-].[Cl-].[Cl-].[Cl-].[Cl-] [Compound 1] | >100000 | 8 | 99.8 | 2.85 | 8 | not observed | 4 | 16 | Insoluble | Insoluble | (11 wt %) | Gel | Solution | Solution | (9.2 wt %) | Gel | (7.8 wt %) | Gel | 8 | % killing (S. aureus [4]; 0.5 MIC): 99.975%; Log reduction (S. aureus [4]; 0.5 MIC): 3.69 ± 0.335; % killing (S. aureus [4]; 2 MIC): >99.999%; Log reduction (S. aureus [4]; 2 MIC): 7.28 ± 0.036; % killing (S. aureus [4]; MIC): 99.999%; Log reduction (S. aureus [4]; MIC): 5.35 ± 0.094; % killing (E. coli [7]; 0.5 MIC): 97.692%; Log reduction (E. coli [7]; 0.5 MIC): 1.48 ± 0.212; % killing (E. coli [7]; 2 MIC): >99.999%; Log reduction (E. coli [7]; 2 MIC): 8.40 ± 0.403; % killing (E. coli [7]; MIC): >99.999%; Log reduction (E. coli [7]; MIC): 7.53 ± 0.173 |
| CCCCCCCCCCCC[n+]1ccn(Cc2ccc(C[n+]3ccn(Cc4ccc(C[n+]5ccn(Cc6ccccc6Cn6cc[n+](Cc7ccc(Cn8cc[n+](Cc9ccc(Cn%10cc[n+](CCCCCCCCCCCC)c%10)cc9)c8)cc7)c6)c5)cc4)c3)cc2)c1.[Br-].[Br-].[Cl-].[Cl-].[Cl-].[Cl-] [Compound 4] | 31 | 16 | >99.9 | 3.69 | 11.22 |  | 4 | 31 | Insoluble | Insoluble | (9.0 wt %) | Gel | Solution | Solution | (5.8 wt %) | Gel | (7.2 wt %) | Gel | 8 | fast killing in words (E. coli [2]; E. coli time kill): instantaneous elimination; CMC in PBS ([5]; PBS buffer solution): 10.9 ppm; CMC in DI H2O ([5]; deionised water): 938.5 ppm; Gel formation ([8]; binary mixtures of water/ethanol and glycerol/ethanol): did not form a gel |
| c1ccc(C[n+]2ccn(Cc3ccc(C[n+]4ccn(Cc5ccc(C[n+]6ccn(Cc7ccccc7Cn7cc[n+](Cc8ccc(Cn9cc[n+](Cc%10ccc(Cn%11cc[n+](Cc%12ccccc%12)c%11)cc%10)c9)cc8)c7)c6)cc5)c4)cc3)c2)cc1 [IBN-1, reference compound] | >100000 | 31 | 83.33 | 0.79 | 10.36 | not observed | 3 | 31 |  |  |  |  |  |  |  |  |  |  | 4 | killing within two minutes (E. coli [2]; E. coli (3×10^8 cells mL^−1), 32 ppm concentration of oligomer compounds, two minutes): 83%; Gel formation ([8]; any of the solvents): not able to form gels |
